Data taken from ChEMBL document CHEMBL1909046, “DrugMatrix in vitro pharmacology data”.
pIC50, pKi: −log10 of the molar value.

How the values were obtained:
[1] = target: cGMP-specific 3',5'-cyclic phosphodiesterase (Homo sapiens, UniProt O76074); assay: DRUGMATRIX: Phosphodiesterase PDE5 enzyme inhibition (substrate: [3H]cGMP + cGMP); format: tissue-based, Platelet; settings: platelet; Not Active = under 50% inhibition at 10 µM
Melanocortin receptor 3 = Melanocortin receptor 3 (Homo sapiens, UniProt P41968); format: cell membranes, Membrane; settings: hek293; further: in other assays of this panel Not Active means under 50% inhibition at 10 µM
Sequence of Melanocortin receptor 3 (P41968 whole entry): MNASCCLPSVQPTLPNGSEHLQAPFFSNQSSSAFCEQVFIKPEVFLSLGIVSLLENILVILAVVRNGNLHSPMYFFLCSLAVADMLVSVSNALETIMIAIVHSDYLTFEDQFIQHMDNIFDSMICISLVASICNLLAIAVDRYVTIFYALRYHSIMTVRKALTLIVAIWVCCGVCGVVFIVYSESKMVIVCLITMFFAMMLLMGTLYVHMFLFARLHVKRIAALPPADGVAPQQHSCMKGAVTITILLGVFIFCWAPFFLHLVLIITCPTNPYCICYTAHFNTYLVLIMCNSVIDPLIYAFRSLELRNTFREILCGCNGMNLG

[2] = DRUGMATRIX: beta-Lactamase enzyme inhibition (substrate: Nitrocefin); parameters: species or system Bacillus cereus; settings: Not Active = under 50% inhibition at 10 µM
[3] = target: Delta-type opioid receptor (Homo sapiens, UniProt P41143); format: cell membranes, HEK293, Membrane; settings: for IC50: hek293; on all read-outs here: in other assays of this panel Not Active means under 50% inhibition at 10 µM
Sequence of Delta-type opioid receptor (P41143 whole entry): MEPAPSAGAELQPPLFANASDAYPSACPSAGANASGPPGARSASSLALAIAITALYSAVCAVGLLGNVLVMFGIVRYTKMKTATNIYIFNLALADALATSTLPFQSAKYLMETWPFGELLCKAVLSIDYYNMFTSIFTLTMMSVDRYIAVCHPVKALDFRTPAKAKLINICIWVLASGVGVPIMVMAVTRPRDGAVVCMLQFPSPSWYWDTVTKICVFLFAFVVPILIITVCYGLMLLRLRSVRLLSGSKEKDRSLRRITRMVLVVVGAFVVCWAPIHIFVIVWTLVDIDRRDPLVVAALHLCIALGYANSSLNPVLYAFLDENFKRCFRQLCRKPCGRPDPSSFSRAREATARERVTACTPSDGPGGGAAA

[4] = target: T1, Cholecystokinin receptor type A (Homo sapiens, UniProt P32238); format: cell membranes, Membrane; settings: 1321-n1; further: in other assays of this panel Not Active means under 50% inhibition at 10 µM
T1 sequence (P32238 whole entry): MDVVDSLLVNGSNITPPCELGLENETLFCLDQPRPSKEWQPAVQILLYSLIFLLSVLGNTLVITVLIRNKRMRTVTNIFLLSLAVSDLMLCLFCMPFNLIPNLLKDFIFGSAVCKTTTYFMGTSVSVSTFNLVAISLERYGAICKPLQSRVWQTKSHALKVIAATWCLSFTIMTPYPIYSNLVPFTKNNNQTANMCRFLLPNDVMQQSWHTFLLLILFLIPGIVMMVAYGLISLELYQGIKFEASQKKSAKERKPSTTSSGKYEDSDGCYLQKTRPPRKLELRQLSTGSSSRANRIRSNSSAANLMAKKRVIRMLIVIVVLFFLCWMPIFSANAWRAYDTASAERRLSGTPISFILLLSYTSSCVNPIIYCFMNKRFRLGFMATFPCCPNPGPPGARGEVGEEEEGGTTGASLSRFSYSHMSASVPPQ

Progesterone receptor = target: T2, Progesterone receptor (Bos taurus, UniProt Q690N0); assay: DRUGMATRIX: Progesterone radioligand binding (ligand: [3H] R-5020); format: tissue-based, Uterus; settings: Not Active = under 50% inhibition at 10 µM
T2 sequence (Q690N0 whole entry): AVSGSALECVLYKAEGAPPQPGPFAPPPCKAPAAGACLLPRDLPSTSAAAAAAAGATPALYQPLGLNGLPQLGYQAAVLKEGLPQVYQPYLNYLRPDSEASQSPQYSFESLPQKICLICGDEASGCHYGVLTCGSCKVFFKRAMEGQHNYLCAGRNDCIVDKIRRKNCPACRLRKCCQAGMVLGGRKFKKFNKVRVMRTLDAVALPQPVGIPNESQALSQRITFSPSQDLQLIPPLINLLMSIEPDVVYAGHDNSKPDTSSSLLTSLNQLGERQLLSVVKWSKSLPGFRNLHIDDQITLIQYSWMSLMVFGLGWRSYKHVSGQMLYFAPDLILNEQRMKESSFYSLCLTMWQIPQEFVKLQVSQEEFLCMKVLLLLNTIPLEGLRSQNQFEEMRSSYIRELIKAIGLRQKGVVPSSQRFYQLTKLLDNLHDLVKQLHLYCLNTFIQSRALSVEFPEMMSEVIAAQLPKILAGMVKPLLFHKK

[5] = DRUGMATRIX: GABAA, Chloride Channel, TBOB radioligand binding (ligand: [3H] TBOB); format: cell membranes, Rattus norvegicus, Wistar, Cerebral cortex, Membrane; settings: Not Active = under 50% inhibition at 10 µM

Row | Structure (SMILES) | IC50 [1] | IC50 (Melanocortin receptor 3) | IC50 [2] | Ki [2] | IC50 [3] | IC50 [4] | IC50 (Progesterone receptor) | IC50 [5] | Ki [5] | pIC50 ([3]; read-out: IC50) | pKi ([3]; read-out: Ki) | pIC50 (Progesterone receptor; read-out: IC50) | pKi (Progesterone receptor; read-out: Ki)
1 | CCOc1nc2cccc(C(=O)O)c2n1Cc1ccc(-c2ccccc2-c2nnn[nH]2)cc1 | Not Active | Not Active | Not Active | Not Active | Not Active | Not Active | Not Active | Not Active | Not Active | – | – | – | –
2 | O=C(O)CCCc1cccs1 | Not Active | Not Active | Not Active | Not Active | Not Active | Not Active | Not Active | Not Active | Not Active | – | – | – | –
3 | COc1ccccc1N | Not Active | Not Active | Not Active | Not Active | Not Active | Not Active | Not Active | Not Active | Not Active | – | – | – | –
4 | O=C(c1ccccc1F)N1CCC(Cc2ccccc2)CC1 | Not Active | Not Active | Not Active | Not Active | Not Active | Not Active | Not Active | Not Active | Not Active | – | – | – | –
5 | Cc1c(O)cccc1C(=O)N[C@@H](CSc1ccccc1)[C@H](O)CN1C[C@H]2CCCC[C@H]2C[C@H]1C(=O)NC(C)(C)C | Not Active | Not Active | Not Active | Not Active | – | Not Active | – | Not Active | Not Active | 4.18 | 4.63 | 4.35 | 5.24
6 | CC(O)COC[C@H]1O[C@@H]2O[C@H]3[C@H](O)[C@@H](O)[C@@H](O[C@H]4[C@H](O)[C@@H](O)[C@@H](O[C@H]5[C@H](O)[C@@H](O)[C@@H](O[C@H]6[C@H](O)[C@@H](O)[C@@H](O[C@H]7[C@H](O)[C@@H](O)[C@@H](O[C@H]8[C@H](O)[C@@H](O)[C@@H](O[C@H]1[C@H](O)[C@H]2O)O[C@@H]8COCC(C)O)O[C@@H]7COCC(C)O)O[C@@H]6COCC(C)O)O[C@@H]5COCC(C)O)O[C@@H]4COCC(C)O)O[C@@H]3COCC(C)O (stereo partly drawn) [2-HYDROXYPROPYL-BETA-CYCLODEXTRIN] | Not Active | Not Active | Not Active | Not Active | Not Active | Not Active | Not Active | Not Active | Not Active | – | – | – | –
7 | NC(=O)c1cccc(N)c1 [3-AMINOBENZAMIDE] | Not Active | Not Active | Not Active | Not Active | Not Active | Not Active | Not Active | Not Active | Not Active | – | – | – | –
8 | C[C@H]1O[C@H](O[C@H]2[C@H](O)[C@@H](O)[C@@H](O[C@H]3[C@H](O)[C@@H](O)C(O)O[C@@H]3CO)O[C@@H]2CO)[C@H](O)[C@@H](O)[C@@H]1N[C@H]1C=C(CO)[C@@H](O)[C@H](O)[C@H]1O (stereo partly drawn) [ACARBOSE] | Not Active | Not Active | Not Active | Not Active | Not Active | Not Active | Not Active | Not Active | Not Active | – | – | – | –
9 | CC[C@H]1[C@@H]2C[C@H]3[C@@H]4N(C)c5ccccc5[C@]45C[C@@H]([C@@H]2[C@H]5O)N3[C@@H]1O [AJMALINE] | Not Active | Not Active | Not Active | Not Active | Not Active | Not Active | Not Active | Not Active | Not Active | – | – | – | –
10 | NC12CC3CC(CC(C3)C1)C2 [AMANTADINE] | Not Active | Not Active | Not Active | Not Active | Not Active | Not Active | Not Active | Not Active | Not Active | – | – | – | –
11 | NCCCNCCSP(=O)(O)O [AMIFOSTINE] | Not Active | Not Active | Not Active | Not Active | Not Active | Not Active | – | Not Active | Not Active | – | – | – | –
12 | CN(C)CCC=C1c2ccccc2CCc2ccccc21 [AMITRIPTYLINE] | Not Active | Not Active | Not Active | Not Active | Not Active | Not Active | Not Active | Not Active | Not Active | – | – | – | –
13 | CC(=O)Oc1ccccc1C(=O)O [ASPIRIN] | Not Active | Not Active | Not Active | Not Active | Not Active | Not Active | Not Active | Not Active | Not Active | – | – | – | –
14 | CC(C)c1c(C(=O)Nc2ccccc2)c(-c2ccccc2)c(-c2ccc(F)cc2)n1CC[C@@H](O)C[C@@H](O)CC(=O)O [ATORVASTATIN] | Not Active | Not Active | Not Active | Not Active | Not Active | Not Active | Not Active | Not Active | Not Active | – | – | – | –
15 | CC(=O)OC[C@H]1O[C@@H](n2ncc(=O)[nH]c2=O)[C@H](OC(C)=O)[C@@H]1OC(C)=O [AZARIBINE] | Not Active | Not Active | Not Active | Not Active | Not Active | Not Active | Not Active | Not Active | Not Active | – | – | – | –
16 | C[C@H]1[C@H](NC(=O)/C(=N\OC(C)(C)C(=O)O)c2csc(N)n2)C(=O)N1S(=O)(=O)O [AZTREONAM] | Not Active | Not Active | Not Active | Not Active | Not Active | Not Active | Not Active | Not Active | Not Active | – | – | – | –
17 | O=C(O)CCNC(=O)c1ccc(/N=N/c2ccc(O)c(C(=O)O)c2)cc1 [BALSALAZIDE] | Not Active | Not Active | Not Active | Not Active | Not Active | Not Active | Not Active | Not Active | Not Active | – | – | – | –
18 | COc1cc(OC)c(C(=O)CCCN2CCCC2)c(OC)c1 [BUFLOMEDIL] | Not Active | Not Active | Not Active | Not Active | Not Active | Not Active | Not Active | Not Active | Not Active | – | – | – | –
19 | Cn1c(=O)c2c(ncn2C)n(C)c1=O [CAFFEINE] | Not Active | Not Active | Not Active | Not Active | Not Active | Not Active | Not Active | Not Active | Not Active | – | – | – | –
20 | ClC(Cl)(Cl)Cl [CARBON TETRACHLORIDE] | Not Active | Not Active | Not Active | Not Active | Not Active | Not Active | Not Active | Not Active | Not Active | – | – | – | –
21 | CO/N=C(\C(=O)N[C@@H]1C(=O)N2C(C(=O)O)=C(COC(C)=O)CS[C@H]12)c1csc(N)n1 [CEFOTAXIME] | Not Active | Not Active | Not Active | Not Active | Not Active | Not Active | Not Active | Not Active | Not Active | – | – | – | –
22 | CC(O)(P(=O)(O)O)P(=O)(O)O [ETIDRONIC ACID] | Not Active | Not Active | Not Active | Not Active | Not Active | Not Active | – | Not Active | Not Active | – | – | – | –
